Earlier results on two compounds are cited in patent US10208063B2, “ACC inhibitors and uses thereof” (Gilead Apollo, LLC, priority 2013, dated 2019).

By IC50 is commonly meant the concentration that gives 50% inhibition.

Data set [1] has as its system liposarcoma.
For data set [2], the system named is insulin-resistant rat muscle tissue. The following applies: within 30 min of compound administration.
Data set [3] relates to Hep-G2 cells.
Data set [4] relates to rat muscle slices.
In data set [5] the test system is C2C12 cells.
For data set [6], the target named is T1, pyruvate carboxylase (Homo sapiens, UniProt P11498).
T1 sequence (P11498 21-1178): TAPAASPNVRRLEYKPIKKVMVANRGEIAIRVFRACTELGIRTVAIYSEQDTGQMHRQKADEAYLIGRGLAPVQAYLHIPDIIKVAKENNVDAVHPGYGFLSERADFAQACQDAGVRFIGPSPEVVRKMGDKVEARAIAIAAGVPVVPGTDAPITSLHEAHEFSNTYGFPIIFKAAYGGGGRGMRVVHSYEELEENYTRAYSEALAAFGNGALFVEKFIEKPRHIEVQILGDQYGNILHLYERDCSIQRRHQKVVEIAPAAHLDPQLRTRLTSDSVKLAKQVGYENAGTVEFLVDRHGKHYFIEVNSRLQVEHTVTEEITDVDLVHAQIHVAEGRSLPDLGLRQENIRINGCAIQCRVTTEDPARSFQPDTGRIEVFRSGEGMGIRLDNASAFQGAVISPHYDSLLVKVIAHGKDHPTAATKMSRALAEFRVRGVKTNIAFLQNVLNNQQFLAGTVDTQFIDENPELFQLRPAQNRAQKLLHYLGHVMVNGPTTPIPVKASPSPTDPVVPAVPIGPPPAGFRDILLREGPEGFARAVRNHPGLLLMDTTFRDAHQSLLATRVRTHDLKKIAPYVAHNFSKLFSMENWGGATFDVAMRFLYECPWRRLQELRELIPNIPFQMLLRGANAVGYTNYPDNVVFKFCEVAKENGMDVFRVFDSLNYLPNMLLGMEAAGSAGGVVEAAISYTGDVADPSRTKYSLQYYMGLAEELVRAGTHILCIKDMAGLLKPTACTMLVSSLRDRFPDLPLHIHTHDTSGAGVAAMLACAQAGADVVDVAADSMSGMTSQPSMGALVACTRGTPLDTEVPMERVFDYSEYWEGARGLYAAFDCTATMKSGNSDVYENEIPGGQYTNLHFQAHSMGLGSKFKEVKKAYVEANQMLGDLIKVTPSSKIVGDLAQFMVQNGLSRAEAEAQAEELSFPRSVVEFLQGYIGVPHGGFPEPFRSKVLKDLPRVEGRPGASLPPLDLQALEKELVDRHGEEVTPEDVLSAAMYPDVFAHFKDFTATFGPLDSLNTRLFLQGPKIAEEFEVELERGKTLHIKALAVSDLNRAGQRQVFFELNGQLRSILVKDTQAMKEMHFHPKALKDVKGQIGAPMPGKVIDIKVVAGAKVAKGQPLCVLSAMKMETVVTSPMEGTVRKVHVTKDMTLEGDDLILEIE

In data set [7] the target is T2, propionyl-CoA carboxylase (Homo sapiens, UniProt P05165+P05166).
T2 sequence (P05165 53-728): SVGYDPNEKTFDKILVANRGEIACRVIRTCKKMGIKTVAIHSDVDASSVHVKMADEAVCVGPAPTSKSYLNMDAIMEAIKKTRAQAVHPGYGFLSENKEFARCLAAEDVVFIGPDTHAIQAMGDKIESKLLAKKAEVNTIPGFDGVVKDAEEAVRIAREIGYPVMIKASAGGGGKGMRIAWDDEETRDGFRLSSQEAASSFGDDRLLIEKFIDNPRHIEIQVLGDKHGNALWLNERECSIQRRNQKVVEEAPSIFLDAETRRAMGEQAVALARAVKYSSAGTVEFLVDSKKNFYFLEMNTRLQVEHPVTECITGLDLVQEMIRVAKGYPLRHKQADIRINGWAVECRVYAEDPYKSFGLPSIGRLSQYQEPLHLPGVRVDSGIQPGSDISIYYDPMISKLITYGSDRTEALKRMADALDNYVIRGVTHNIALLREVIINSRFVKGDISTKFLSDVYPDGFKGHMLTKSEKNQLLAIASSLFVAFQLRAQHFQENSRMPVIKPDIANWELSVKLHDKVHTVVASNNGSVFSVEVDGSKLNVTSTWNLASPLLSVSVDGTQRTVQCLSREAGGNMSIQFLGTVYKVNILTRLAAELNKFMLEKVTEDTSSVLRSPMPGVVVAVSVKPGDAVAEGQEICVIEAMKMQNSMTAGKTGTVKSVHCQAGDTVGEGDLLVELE
T2 sequence (P05166 29-539): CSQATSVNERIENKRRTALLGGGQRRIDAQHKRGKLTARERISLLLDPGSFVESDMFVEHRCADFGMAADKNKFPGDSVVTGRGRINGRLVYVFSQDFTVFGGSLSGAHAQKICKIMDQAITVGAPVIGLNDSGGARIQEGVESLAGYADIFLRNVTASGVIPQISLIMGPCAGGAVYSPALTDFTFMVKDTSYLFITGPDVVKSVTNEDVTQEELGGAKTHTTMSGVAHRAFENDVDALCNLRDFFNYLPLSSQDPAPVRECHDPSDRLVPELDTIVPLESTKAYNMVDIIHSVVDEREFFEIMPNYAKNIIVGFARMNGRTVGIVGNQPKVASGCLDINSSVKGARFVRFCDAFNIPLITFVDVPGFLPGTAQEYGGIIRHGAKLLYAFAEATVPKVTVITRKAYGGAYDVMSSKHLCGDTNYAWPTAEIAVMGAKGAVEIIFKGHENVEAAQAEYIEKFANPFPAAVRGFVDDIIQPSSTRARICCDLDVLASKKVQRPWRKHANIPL

For data set [8] the following is noted: rats, acute (46 min) treatment.
In data set [9] the test system is ACC2. The following applies: ACC2 isolated from rat, mouse, monkey and human.
Data set [10] concerns ACC1. The following applies: ACC1 isolated from rat, mouse, monkey and human.
For data set [11] the following is noted: sucrose-fed rats, three weeks.

As to `CO[C@H]1CCCC[C@@H](c2ccccc2)OC(=O)[C@@H](C)[C@@]2(O)O[C@H]([C@@H](C)[C@H](O)[C@H]2OC)[C@@H](C)/C=C/[C@H]1OC` [soraphen A], in [1], the lipogenesis entry is given as “inhibited” and the tumor cell growth entry is on record as “inhibited”.

In the case of `O=C(c1c2ccccc2cc2ccccc12)N1CCC(N2CCC[C@@H](C(=O)N3CCOCC3)C2)CC1` [CP-640186], the insulin sensitivity entry in data set [2] is on record as “stimulation”. Further, in [3], the CPT-I activity result is given as “increased”, the FA synthesis entry is reported as “reduced”, the apoA1 secretion result is “without affecting” and the apoB secretion result was “reduced”. Besides, in [3], the cholesterol synthesis result is on record as “without affecting”; the “triglyceride synthesis and secretion” value was “reduced”. In addition, the FA oxidation result in data set [4] is recorded as “stimulated”. Further, in data set [5], the FA oxidation entry is “stimulated”. Moreover, the “inhibition of pyruvate carboxylase” value in [6] is “without inhibiting”. Also, the “inhibition of propionyl-CoA carboxylase” value in data set [7] is “without inhibiting”. In addition, in data set [8], the FA clearance result is “stimulated” and the glucose clearance entry is “without decreasing”. The IC50 in [9] was ~60 nM. In addition, the IC50 in data set [10] is ~60 nM. For the same compound, in [11], the insulin sensitivity result is recorded as “improved”; the leptin levels result is “reduced”; the “liver, muscle and adipose triglycerides” value is “time- and dose-dependently reduced”. In data set [11] (selective fat reduction without reducing lean body mass), the body weight result was “reduced”. Also, in data set [11] (without changing plasma glucose levels), the “hyperinsulinemia produced by the high sucrose diet” value was “reduced”. Besides, for the setting “experimental animals”, the “liver and adipose tissue FA synthesis” value is listed as “reduced”; the “whole body FA oxidation” value is “increased”. Besides, for the setting “lipogenic and oxidative tissues, fed and fasted state”, the malonyl-CoA concentration result was “acutely reduced”.
